Laboratory results: PubChem BioAssay (NCI)
Values after ≈ are worked out from the molar mass of the structure shown. Values joined by “and” are separate entries in the source; they are usually repeats but may differ in a detail not shown here. Equal values may be shown once.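 Compound exposure: 48 hours, 5 concentrations, 96-well plates. The concentration for 50% growth inhibition is given as GI50. TGI marks complete inhibition of growth.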 Active and inactive are the calls of the source. Rule as the data show it: active = GI50 below about 0.43 µM; inactive = the rest. Where a SMILES comes first, the peptide text is derived from it. [ ]: non-standard residue; d: D form. Ac5c = NC1(C(=O)O)CCCC1

Columns and labels:
Experiment in all cases: NCI-60 cell line screen, 48 h
BT-549 breast = tested on: BT-549 breast
DMS 114 small cell lung = tested on: DMS 114 small cell lung
DMS 273 small cell lung = tested on: DMS 273 small cell lung
HOP-18 NSCLC = tested on: HOP-18 NSCLC
KM20L2 colon = tested on: KM20L2 colon
M19-MEL melanoma = tested on: M19-MEL melanoma
MDA-N = tested on: MDA-N
SNB-78 CNS = tested on: SNB-78 CNS
LXFL 529 NSCLC = tested on: LXFL 529 NSCLC

CC(=O)c1c(C)[nH]c(-c2nc3ccc(N4CCN(C)CC4)cc3[nH]2)c1-c1ccc(OCC2CCOCC2)cc1
GI50 (BT-549 breast): 3.4 µM | TGI (BT-549 breast): 18 µM

Cc1c[nH]c2c(O)cc3c(c12)[C@H](CCl)CN3C(=O)c1cc2cc(NC(=O)Nc3ccc4[nH]c(C(=O)N5C[C@@H](CCl)c6c5cc(O)c5[nH]cc(C)c65)cc4c3)ccc2[nH]1
GI50 (DMS 114 small cell lung): 0.000887 ng/mL and 0.888 ng/mL | GI50 (DMS 273 small cell lung): 0.000887 ng/mL and 0.888 ng/mL | outcome (HOP-18 NSCLC): inactive | outcome (KM20L2 colon): inactive | GI50 (M19-MEL melanoma): 1.14 ng/mL (≈ 1.4 nM) | TGI (M19-MEL melanoma): 3.44 ng/mL | GI50 (MDA-N): 0.0123 µM | GI50 (SNB-78 CNS): 0.000887 ng/mL and 2.73 ng/mL | TGI (SNB-78 CNS): 1.59 µM and 0.00887 µg/mL and 6.72 µg/mL

Nc1c(C(=O)c2ccc(Cl)cc2)sc(Nc2ccccc2)c1-c1nc2ccccc2s1
GI50 (BT-549 breast): 2.29 µM | TGI (BT-549 breast): 19.5 µM

NNC(=O)/C(=C/c1ccc(Cl)c(Cl)c1)NC(=O)c1ccccc1
TGI (DMS 114 small cell lung): > 100 µM | TGI (KM20L2 colon): > 100 µM | TGI (LXFL 529 NSCLC): > 100 µM | TGI (M19-MEL melanoma): > 100 µM | TGI (SNB-78 CNS): > 100 µM

O=c1ccn(C2OC(CO)C(O)C2F)c(=O)[nH]1 (stereo unspecified)
GI50 (BT-549 breast): > 85.9 µM | TGI (BT-549 breast): > 100 µM | TGI (MDA-N): > 100 µM

c1ccc2c(c1)CCC/C2=N\OCC1CO1 (stereo unspecified)
TGI (DMS 273 small cell lung): > 100 µM | TGI (HOP-18 NSCLC): > 100 µM | TGI (KM20L2 colon): > 100 µM | TGI (LXFL 529 NSCLC): > 100 µM | TGI (M19-MEL melanoma): > 100 µM | TGI (SNB-78 CNS): > 100 µM

CC(=O)Nc1ccc(C(=O)NN2C(=O)C(Cl)C2c2ccc(Cl)cc2)cc1 (stereo unspecified)
TGI (BT-549 breast): > 100 µM | TGI (HOP-18 NSCLC): > 100 µM | TGI (LXFL 529 NSCLC): > 100 µM | TGI (M19-MEL melanoma): > 100 µM

O=C1c2ccccc2-c2c1c1ccccc1c(=O)n2CCCNCCCn1ccnc1
GI50 (BT-549 breast): 1.07 µM | TGI (BT-549 breast): 7.11 µM

CN[C@@H](C)C(=O)N[C@H](C(=O)N1CCC[C@H]1C(=O)N[C@H]1c2ccccc2C[C@H]1OCC#CC#CCO[C@@H]1Cc2ccccc2[C@@H]1NC(=O)[C@@H]1CCCN1C(=O)[C@@H](NC(=O)[C@H](C)NC)C1CCCCC1)C1CCCCC1
GI50 (BT-549 breast): < 0.01 µM

CCN(CC)CCCC(C)Nc1c2ccc(Cl)cc2nc2ccc(OC)cc12 (stereo unspecified)
GI50 (BT-549 breast): 2.17 µM | TGI (BT-549 breast): 4.84 µM and 6.51 µM | TGI (DMS 114 small cell lung): 3.1 µM | TGI (DMS 273 small cell lung): 2.04 µM | TGI (KM20L2 colon): 3 µM | TGI (LXFL 529 NSCLC): 2.95 µM | TGI (M19-MEL melanoma): 3.14 µM | TGI (MDA-N): 3.95 µM | TGI (SNB-78 CNS): 11.5 µM

O=C1Nc2ccc(C(=O)c3ccco3)cc2/C1=C/c1cc(Cl)c(O)c(Cl)c1
GI50 (BT-549 breast): 3.54 µM | TGI (BT-549 breast): 10.5 µM

COc1cc(Nc2nccc(Nc3ccc4c(C)[nH]nc4c3)n2)cc(OC)c1OC
GI50 (BT-549 breast): 3.3 µM | TGI (BT-549 breast): 11 µM

O=C1OC(CC(=O)c2ccc(Cl)c(Cl)c2)C(Cl)=C1Cl (stereo unspecified)
TGI (DMS 114 small cell lung): > 100 µM | TGI (DMS 273 small cell lung): > 100 µM | TGI (HOP-18 NSCLC): > 100 µM | TGI (KM20L2 colon): > 100 µM | TGI (LXFL 529 NSCLC): > 100 µM | TGI (M19-MEL melanoma): > 100 µM

O=Cc1ccc(-c2cc(C=O)c(-c3cccs3)[nH]2)s1
GI50 (BT-549 breast): > 100 µM | TGI (BT-549 breast): 75 µM and > 100 µM | GI50 (MDA-N): 33.7 µM | TGI (MDA-N): 75 µM and > 100 µM

CC(C)(C#N)c1cc(Cn2cncn2)cc(C(C)(C)C#N)c1
GI50 (BT-549 breast): 472 µM | TGI (BT-549 breast): > 10000 µM

O=c1c2cc(Cl)ccc2oc2ccc(OCCCCCN3CCCCC3)cc12
GI50 (BT-549 breast): 6.26 µM | TGI (BT-549 breast): 12.8 µM

CO[C@@H]1/C=C\C=C(/C)C(=O)NC2=CC(=O)C(NCCN(C)C)=C(C[C@@H](C)C[C@@H](OC)[C@@H](O)[C@H](C)/C=C(\C)[C@H]1OC(N)=O)C2=O
GI50 (BT-549 breast): 0.88 µM and 1.53 µM | TGI (BT-549 breast): 14.6 µM and 21.1 µM | TGI (MDA-N): 1.92 µM and 2.18 µM

CC12OC(c3ccccc3)=CC(c3ccc(Cl)cc3)=C1C(c1ccccc1)=CC2=O (stereo unspecified)
GI50 (BT-549 breast): > 100 µM | TGI (BT-549 breast): > 100 µM

COC(=O)CCc1cc(OC)c2c(c1)C(C(=O)OC)C(c1ccc(OC)c(OC)c1)O2 (stereo unspecified)
TGI (BT-549 breast): > 100 µM | TGI (MDA-N): > 100 µM and 23.2 µM

COC(=O)C1C(C(=O)OC)C2(OC)c3ccccc3-c3ccccc3C12 (stereo unspecified)
TGI (DMS 114 small cell lung): 87.9 µM | TGI (DMS 273 small cell lung): 43 µM | TGI (HOP-18 NSCLC): > 100 µM | TGI (KM20L2 colon): 87.9 µM | TGI (LXFL 529 NSCLC): > 100 µM | TGI (M19-MEL melanoma): > 100 µM

COc1ccc(-c2onc(-c3ccc([N+](=O)[O-])cc3)c2C2=NCCN2)cc1
TGI (HOP-18 NSCLC): > 100 µM | TGI (KM20L2 colon): > 100 µM | TGI (LXFL 529 NSCLC): > 100 µM | TGI (M19-MEL melanoma): > 100 µM | TGI (SNB-78 CNS): > 100 µM

CSc1ccc(C2=NN(C(=O)c3ccc(F)cc3)C(c3ccc(F)cc3)C2)cc1 (stereo unspecified)
GI50 (BT-549 breast): 15.1 µM | TGI (BT-549 breast): 30 µM

O=[N+]([O-])c1cc(Cl)c(Cl)c([N+](=O)[O-])c1Cl
GI50 (BT-549 breast): 1.81 µM | TGI (BT-549 breast): 3.39 µM

NC1(C(=O)NC2(C(=O)O)CCCC2)CCCC1 (H-[Ac5c]-[Ac5c]-OH)
TGI (BT-549 breast): > 100 µM | TGI (MDA-N): > 100 µM

Cn1c([N+](=O)[O-])cnc1/C=C1\Oc2ccccc2C1=O
GI50 (BT-549 breast): 0.659 µM | TGI (BT-549 breast): 4.17 µM

Cc1nc2sc(C(=O)Nc3cccc(Cl)c3C)c(N)c2cc1C(=O)/C=C/c1ccccc1
GI50 (BT-549 breast): 0.525 µM | TGI (BT-549 breast): 1.72 µM

O=C(/C=C/c1ccc(F)cc1)c1ccc(Cl)cc1Cl
GI50 (BT-549 breast): 27.2 µM | TGI (BT-549 breast): 71.6 µM

O=C1c2ccccc2-c2cccc3ccc(Cc4ccc5ccccc5c4)c1c23
TGI (DMS 273 small cell lung): > 100 µM | TGI (KM20L2 colon): > 100 µM | TGI (M19-MEL melanoma): > 100 µM | TGI (SNB-78 CNS): > 100 µM

CC1=C2[C@@H](CC1)[C@]1(C)O[C@@](C3CCCCC3)(C[C@H]1OC(=O)CO)[C@H]2OC(=O)/C=C/c1ccccc1
GI50 (BT-549 breast): 0.328 µM | TGI (BT-549 breast): 6.67 µM

CC[C@H](NC(=O)[C@H](C)NC)C(=O)N1C[C@@H](O)C[C@H]1Cc1c(-c2[nH]c3cc(F)ccc3c2C[C@@H]2C[C@H](O)CN2C(=O)[C@H](CC)NC(=O)[C@H](C)NC)[nH]c2cc(F)ccc12
GI50 (BT-549 breast): 0.569 µM | TGI (BT-549 breast): > 41.8 µM

COc1ccc(N2C(=O)CC(Cl)C2=O)cc1 (stereo unspecified)
TGI (BT-549 breast): > 100 µM

COc1cc(/C=C/C(=O)CC(=O)/C=C/c2cc(OC)c(OC)c(OC)c2)cc(OC)c1OC
GI50 (BT-549 breast): 4.28 µM | TGI (BT-549 breast): 22.1 µM

C=CCC(N[C@H](CO)c1ccccc1)c1ccc2ccccc2n1 (stereo partly specified)
GI50 (BT-549 breast): > 100 µM | TGI (BT-549 breast): > 100 µM

O=C(O[C@H]1CN[C@H](C#Cc2cc3ncnc(Nc4ccc5c(ccn5Cc5cc(F)ccc5F)c4)c3s2)C1)N1CCOCC1
GI50 (BT-549 breast): 4.32 µM | TGI (BT-549 breast): 11 µM

O=S(=O)(N/N=C/c1ccc(/C=N/NS(=O)(=O)c2ccccc2)cc1)c1ccccc1
TGI (DMS 114 small cell lung): > 100 µM | TGI (DMS 273 small cell lung): > 100 µM | TGI (HOP-18 NSCLC): > 100 µM | TGI (KM20L2 colon): > 100 µM | TGI (M19-MEL melanoma): > 100 µM | TGI (SNB-78 CNS): > 100 µM

CCCCOC(=O)NC(=O)c1cn(CCCOC(=O)CCCCCCCCC(=O)OCCCn2cc(C(=O)NC(=O)OCCCC)c(=O)[nH]c2=O)c(=O)[nH]c1=O
TGI (DMS 114 small cell lung): > 100 µM | TGI (HOP-18 NSCLC): > 100 µM | TGI (KM20L2 colon): > 100 µM | TGI (LXFL 529 NSCLC): > 100 µM | TGI (M19-MEL melanoma): > 100 µM

COc1ccc(/C=N\NC(=O)CN2CCN(c3cc4c(cc3F)c(=O)c(C(=O)N/N=C/c3ccc(OC)c(OC)c3)cn4C3CC3)CC2)cc1OC
GI50 (BT-549 breast): 1.78 µM | TGI (BT-549 breast): 3.89 µM

CCN(CC)CCC(=O)NC1c2ccc(Cl)cc2Oc2c(C)cccc21 (stereo unspecified)
TGI (BT-549 breast): 27.1 µM | TGI (MDA-N): 32.3 µM
